Reference: ChEMBL document CHEMBL4229569, “Structure-Based Design of 1-Heteroaryl-1,3-propanediamine Derivatives as a Novel Series of CC-Chemokine Receptor 5 Antagonists” (J Med Chem, 2018)

How the values were obtained:
[1] = target: C-C chemokine receptor type 5 (Homo sapiens, UniProt P51681); assay: Antagonist activity at CCR5 (unknown origin) expressed in HEK293 cells co-expressing Galpha16 assessed as inhibition of RANTES-induced calcium flux preincubated for 10 mins followed by RANTES addition by fluo-4AM-based fluorescence assay; assay type: functional, cell-based
Sequence of C-C chemokine receptor type 5 (P51681 whole entry): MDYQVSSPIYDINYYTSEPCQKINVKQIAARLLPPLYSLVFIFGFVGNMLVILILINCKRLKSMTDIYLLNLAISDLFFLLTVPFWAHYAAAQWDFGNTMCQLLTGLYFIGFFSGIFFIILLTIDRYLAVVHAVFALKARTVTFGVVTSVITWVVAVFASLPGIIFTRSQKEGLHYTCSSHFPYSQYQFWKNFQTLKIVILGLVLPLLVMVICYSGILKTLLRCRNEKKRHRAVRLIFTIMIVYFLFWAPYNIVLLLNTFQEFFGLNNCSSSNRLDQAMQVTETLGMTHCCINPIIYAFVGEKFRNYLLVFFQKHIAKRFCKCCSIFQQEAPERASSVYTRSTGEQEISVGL

[2] = tested on: Human immunodeficiency virus 1; assay: microbe, parasite or virus in culture; settings: Human immunodeficiency virus 1, SF162, TZM-bl, 48 h
Description: Antiviral activity against CCR5-dependent HIV1 SF162 infected in human TZM-bl cells assessed as reduction in virus infection measured after 48 hrs post infection by luciferase reporter gene assay

in vitro [3] = settings: human, TZM-bl cells
Description: Therapeutic index, ratio of CC50 for human TZM-bl cells to EC50 for CCR5-dependent HIV1 SF162 infected in human TZM-bl cells

[4] = Cytotoxicity against human TZM-bl cells after 48 hrs by MTT assay; assay type: cell-based
[5] = AUC (0 to infinity) in Sprague-Dawley rat at 20 mg/kg, po by LC-MS/MS analysis; assay type: ADME, organism-based; design: dose 20 mg/kg, route oral, time infinity; settings: in vivo
Cytochrome P450 2C9 = Cytochrome P450 2C9 (Homo sapiens, UniProt P11712); assay: Inhibition of CYP2C9 (unknown origin); assay type: ADME
Sequence of Cytochrome P450 2C9 (P11712 whole entry): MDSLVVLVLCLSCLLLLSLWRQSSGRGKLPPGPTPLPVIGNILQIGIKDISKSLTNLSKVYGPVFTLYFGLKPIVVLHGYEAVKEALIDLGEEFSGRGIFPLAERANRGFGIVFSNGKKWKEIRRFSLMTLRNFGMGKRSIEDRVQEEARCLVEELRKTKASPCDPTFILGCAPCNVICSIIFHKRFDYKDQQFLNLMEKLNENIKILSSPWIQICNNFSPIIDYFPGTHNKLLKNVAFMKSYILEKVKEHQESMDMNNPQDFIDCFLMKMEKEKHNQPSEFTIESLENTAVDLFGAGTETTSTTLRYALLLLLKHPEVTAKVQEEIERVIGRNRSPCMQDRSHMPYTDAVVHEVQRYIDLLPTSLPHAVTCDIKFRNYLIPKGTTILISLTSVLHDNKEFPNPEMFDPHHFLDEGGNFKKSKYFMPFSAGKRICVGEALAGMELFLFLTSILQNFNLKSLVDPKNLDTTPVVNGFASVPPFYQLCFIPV

Cytochrome P450 2C19 = Cytochrome P450 2C19 (Homo sapiens, UniProt P33261); assay: Inhibition of CYP2C19 (unknown origin); assay type: ADME
Sequence of Cytochrome P450 2C19 (P33261 whole entry): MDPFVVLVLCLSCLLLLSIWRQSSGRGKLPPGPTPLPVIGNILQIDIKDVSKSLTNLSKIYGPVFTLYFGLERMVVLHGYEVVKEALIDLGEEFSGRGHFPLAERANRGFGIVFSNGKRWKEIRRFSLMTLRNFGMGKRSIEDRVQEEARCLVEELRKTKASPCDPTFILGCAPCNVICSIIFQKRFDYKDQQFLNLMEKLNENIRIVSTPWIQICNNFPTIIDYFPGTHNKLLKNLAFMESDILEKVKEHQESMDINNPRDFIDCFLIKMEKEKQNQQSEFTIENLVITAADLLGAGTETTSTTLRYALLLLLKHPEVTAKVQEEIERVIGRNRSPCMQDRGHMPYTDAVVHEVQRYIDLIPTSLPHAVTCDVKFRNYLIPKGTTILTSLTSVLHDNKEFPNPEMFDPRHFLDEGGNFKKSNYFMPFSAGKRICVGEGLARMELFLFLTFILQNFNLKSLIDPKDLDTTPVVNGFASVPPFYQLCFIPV

in vitro [6] = settings: human, PBMC
Description: Therapeutic index, ratio of CC50 for human PBMC to IC50 for CCR5-dependent HIV1 KM018 infected in human PBMC

[7] = Half life in Sprague-Dawley rat at 10 mg/kg, iv by LC-MS/MS analysis; assay type: ADME, organism-based; settings: in vivo
in vitro [8] = settings: human, HOS cells
Description: Therapeutic index, ratio of CC50 for human HOS cells to IC50 for CCR5-dependent HIV1 Ba-L infected in human HOS cells

[9] = Cmax in Sprague-Dawley rat at 10 mg/kg, iv by LC-MS/MS analysis; assay type: ADME, organism-based; design: dose 10 mg/kg, route intravenous; settings: in vivo
[10] = Cmax in Sprague-Dawley rat at 20 mg/kg, po by LC-MS/MS analysis; assay type: ADME, organism-based; design: dose 20 mg/kg, route oral; settings: in vivo
[11] = MRT in Sprague-Dawley rat at 10 mg/kg, iv by LC-MS/MS analysis; assay type: ADME, organism-based; settings: in vivo
Cytochrome P450 1A2 = target: T1, Cytochrome P450 1A2 (Homo sapiens, UniProt P05177); assay: Inhibition of CYP1A2 (unknown origin); assay type: ADME
T1 sequence (P05177 whole entry): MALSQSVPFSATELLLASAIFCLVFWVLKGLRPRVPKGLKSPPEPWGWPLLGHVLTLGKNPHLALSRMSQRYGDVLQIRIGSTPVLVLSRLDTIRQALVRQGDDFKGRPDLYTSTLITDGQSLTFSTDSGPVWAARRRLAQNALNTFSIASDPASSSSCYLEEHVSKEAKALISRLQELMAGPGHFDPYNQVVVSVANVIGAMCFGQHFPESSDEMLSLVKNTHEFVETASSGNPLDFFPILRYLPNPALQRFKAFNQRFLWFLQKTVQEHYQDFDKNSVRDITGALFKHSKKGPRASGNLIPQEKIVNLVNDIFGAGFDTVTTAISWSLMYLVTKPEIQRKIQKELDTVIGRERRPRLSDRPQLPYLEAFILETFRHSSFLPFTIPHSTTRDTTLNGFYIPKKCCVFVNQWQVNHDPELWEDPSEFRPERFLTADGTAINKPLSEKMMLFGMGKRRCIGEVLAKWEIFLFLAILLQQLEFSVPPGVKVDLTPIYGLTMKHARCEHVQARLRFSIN

[12] = Oral bioavailability in Sprague-Dawley rat at 20 mg/kg by LC-MS/MS analysis; assay type: ADME, organism-based; settings: in vivo
[13] = Tmax in Sprague-Dawley rat at 20 mg/kg, po by LC-MS/MS analysis; assay type: ADME, organism-based; settings: in vivo
[14] = Clearance in Sprague-Dawley rat at 10 mg/kg, iv by LC-MS/MS analysis; assay type: ADME, organism-based; settings: in vivo
Cytochrome P450 3A4 [15] = target: T2, Cytochrome P450 3A4 (Homo sapiens, UniProt P08684); assay: Inhibition of CYP3A4 (unknown origin) using testosterone as substrate; assay type: ADME
T2 sequence (P08684 whole entry): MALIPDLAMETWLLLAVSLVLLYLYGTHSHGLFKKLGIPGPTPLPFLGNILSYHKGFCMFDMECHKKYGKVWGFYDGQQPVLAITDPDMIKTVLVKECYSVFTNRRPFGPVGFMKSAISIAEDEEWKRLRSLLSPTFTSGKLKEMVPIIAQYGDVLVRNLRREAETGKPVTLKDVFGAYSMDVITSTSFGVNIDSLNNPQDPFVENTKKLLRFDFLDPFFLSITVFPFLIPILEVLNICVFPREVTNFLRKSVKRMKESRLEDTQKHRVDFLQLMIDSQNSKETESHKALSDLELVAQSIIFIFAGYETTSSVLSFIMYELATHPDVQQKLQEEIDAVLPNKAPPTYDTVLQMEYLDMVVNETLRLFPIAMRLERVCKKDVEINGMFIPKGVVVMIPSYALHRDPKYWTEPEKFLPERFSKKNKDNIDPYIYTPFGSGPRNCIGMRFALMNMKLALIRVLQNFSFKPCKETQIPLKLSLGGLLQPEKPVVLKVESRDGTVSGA

[16] = tested on: Human immunodeficiency virus 1; assay: microbe, parasite or virus in culture; settings: Human immunodeficiency virus 1, SF162, HOS, 120 h
Description: Antiviral activity against CCR5-dependent HIV1 SF162 infected in human HOS cells assessed as reduction in virus infection measured after 5 days by luciferase reporter gene assay

[17] = target: Voltage-gated inwardly rectifying potassium channel KCNH2 (Homo sapiens, UniProt Q12809); assay: Inhibition of human ERG expressed in CHO cells at holding potential of -80 mV after 60 secs by patch clamp assay; assay type: cell-based
Sequence of Voltage-gated inwardly rectifying potassium channel KCNH2 (Q12809 whole entry): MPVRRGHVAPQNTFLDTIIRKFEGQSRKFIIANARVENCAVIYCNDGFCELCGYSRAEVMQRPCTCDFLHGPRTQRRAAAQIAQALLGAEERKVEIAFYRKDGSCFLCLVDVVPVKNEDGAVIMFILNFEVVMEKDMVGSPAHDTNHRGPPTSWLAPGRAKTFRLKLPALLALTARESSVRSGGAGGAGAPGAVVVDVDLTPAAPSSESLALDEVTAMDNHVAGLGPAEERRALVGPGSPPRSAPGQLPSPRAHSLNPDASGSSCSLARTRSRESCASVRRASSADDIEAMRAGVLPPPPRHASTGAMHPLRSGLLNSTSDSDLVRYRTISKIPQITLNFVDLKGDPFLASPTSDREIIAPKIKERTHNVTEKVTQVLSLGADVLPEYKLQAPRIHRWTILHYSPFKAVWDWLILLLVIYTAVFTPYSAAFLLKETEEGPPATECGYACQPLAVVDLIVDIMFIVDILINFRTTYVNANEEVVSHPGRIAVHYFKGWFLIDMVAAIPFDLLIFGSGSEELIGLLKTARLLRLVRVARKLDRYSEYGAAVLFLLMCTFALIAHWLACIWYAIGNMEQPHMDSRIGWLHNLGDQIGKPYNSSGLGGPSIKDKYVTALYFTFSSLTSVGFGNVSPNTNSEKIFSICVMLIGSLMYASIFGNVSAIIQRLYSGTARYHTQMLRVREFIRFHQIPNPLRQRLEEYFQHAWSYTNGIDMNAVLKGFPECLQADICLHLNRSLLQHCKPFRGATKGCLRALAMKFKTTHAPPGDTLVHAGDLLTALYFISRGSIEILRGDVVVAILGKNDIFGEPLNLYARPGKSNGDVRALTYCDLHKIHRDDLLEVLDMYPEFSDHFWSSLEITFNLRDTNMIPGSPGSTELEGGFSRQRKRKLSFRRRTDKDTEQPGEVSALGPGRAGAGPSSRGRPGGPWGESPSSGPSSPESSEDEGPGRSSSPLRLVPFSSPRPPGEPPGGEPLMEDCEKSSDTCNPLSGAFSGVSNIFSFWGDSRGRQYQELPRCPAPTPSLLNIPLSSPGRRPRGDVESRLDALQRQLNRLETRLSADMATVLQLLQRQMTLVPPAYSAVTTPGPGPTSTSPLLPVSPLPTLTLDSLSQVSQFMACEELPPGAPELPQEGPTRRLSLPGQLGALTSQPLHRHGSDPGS

[18] = MRT in Sprague-Dawley rat at 20 mg/kg, po by LC-MS/MS analysis; assay type: ADME, organism-based; settings: in vivo
[19] = AUC (0 to infinity) in Sprague-Dawley rat at 10 mg/kg, iv by LC-MS/MS analysis; assay type: ADME, organism-based; design: dose 10 mg/kg, time infinity, route intravenous; settings: in vivo
[20] = tested on: Human immunodeficiency virus 1; assay: microbe, parasite or virus in culture; settings: Human immunodeficiency virus 1, Ba-L, PBMC, 168 h
Description: Antiviral activity against CCR5-dependent HIV1 Ba-L infected in human PBMC assessed as reduction in virus infection measured 7 days by luciferase reporter gene assay

[21] = Tmax in Sprague-Dawley rat at 10 mg/kg, iv by LC-MS/MS analysis; assay type: ADME, organism-based; settings: in vivo
in vitro [22] = settings: human, PM1 cells
Description: Therapeutic index, ratio of CC50 for human PM1 cells to IC50 for CCR5-dependent HIV1 Ba-L infected in human PM1 cells

Cytochrome P450 2D6 = Cytochrome P450 2D6 (Homo sapiens, UniProt P10635); assay: Inhibition of CYP2D6 (unknown origin); assay type: ADME
Sequence of Cytochrome P450 2D6 (P10635 whole entry): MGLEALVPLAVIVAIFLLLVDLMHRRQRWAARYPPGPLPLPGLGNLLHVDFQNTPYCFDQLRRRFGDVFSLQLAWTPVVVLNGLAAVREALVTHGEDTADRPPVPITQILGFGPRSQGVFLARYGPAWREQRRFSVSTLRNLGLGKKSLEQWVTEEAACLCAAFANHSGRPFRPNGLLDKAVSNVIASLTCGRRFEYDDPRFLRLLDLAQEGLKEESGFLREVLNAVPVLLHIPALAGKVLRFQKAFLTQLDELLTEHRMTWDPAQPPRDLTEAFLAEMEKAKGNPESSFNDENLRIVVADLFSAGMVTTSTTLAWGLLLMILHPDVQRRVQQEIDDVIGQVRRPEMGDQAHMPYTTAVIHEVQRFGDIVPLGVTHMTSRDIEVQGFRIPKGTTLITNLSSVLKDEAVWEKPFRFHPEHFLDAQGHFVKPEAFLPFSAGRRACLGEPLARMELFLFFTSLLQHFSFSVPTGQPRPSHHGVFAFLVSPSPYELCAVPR

[23] = Half life in Sprague-Dawley rat at 20 mg/kg, po by LC-MS/MS analysis; assay type: ADME, organism-based; settings: in vivo
in vitro [24] = settings: human, HOS cells; remark: listed apart in the source
Description: Therapeutic index, ratio of CC50 for human HOS cells to IC50 for CCR5-dependent HIV1 SF162 infected in human HOS cells

Cytochrome P450 3A4 [25] = target: T2, Cytochrome P450 3A4; assay: Inhibition of CYP3A4 (unknown origin) using midazolam as substrate; assay type: ADME
in vitro [26] = settings: human, PBMC; remark: listed apart in the source
Description: Therapeutic index, ratio of CC50 for human PBMC to IC50 for CCR5-dependent HIV1 SF162 infected in human PBMC cells

[27] = tested on: Human immunodeficiency virus 1; assay: microbe, parasite or virus in culture; settings: Human immunodeficiency virus 1, Ba-L, PM1, 120 h
Description: Antiviral activity against CCR5-dependent HIV1 Ba-L infected in human PM1 cells assessed as reduction in virus infection measured after 5 days by luciferase reporter gene assay

[28] = tested on: Human immunodeficiency virus 1; assay: microbe, parasite or virus in culture; settings: Human immunodeficiency virus 1, SF162, PBMC, 168 h
Description: Antiviral activity against CCR5-dependent HIV1 SF162 infected in human PBMC assessed as reduction in virus infection measured after 7 days by luciferase reporter gene assay

[29] = tested on: Human immunodeficiency virus 1; assay: microbe, parasite or virus in culture; settings: Human immunodeficiency virus 1, Ba-L, HOS, 120 h
Description: Antiviral activity against CCR5-dependent HIV1 Ba-L infected in human HOS cells assessed as reduction in virus infection measured after 5 days by luciferase reporter gene assay

in vitro [30] = settings: human, PBMC; remark: listed apart in the source
Description: Therapeutic index, ratio of CC50 for human PBMC to IC50 for CCR5-dependent HIV1 Ba-L infected in human PBMC

[31] = tested on: Human immunodeficiency virus 1; assay: microbe, parasite or virus in culture; settings: Human immunodeficiency virus 1, KM018, PBMC, 168 h
Description: Antiviral activity against CCR5-dependent HIV1 KM018 infected in human PBMC assessed as reduction in virus infection measured after 7 days by luciferase reporter gene assay

SMILES: Cc1nnc(C(C)C)n1[C@@H]1C[C@H]2CC[C@@H](C1)N2CC[C@H](NC(=O)C1CCC(=O)C1)c1cccs1 (stereo partly drawn)
- IC50 [1]: 0.0029 µM

SMILES: Cc1nnc(C(C)C)n1[C@@H]1C[C@H]2CC[C@@H](C1)N2CC[C@H](NC(=O)[C@@H]1CCC(=O)N1)c1cccs1
- IC50 [1]: 0.0206 µM

SMILES: Cc1nnc(C(C)C)n1[C@@H]1C[C@H]2CC[C@@H](C1)N2CC[C@H](NC(=O)C1CCC(F)(F)CC1)c1ccc(F)s1
- IC50 [2]: 0.519 µM
- IC50 [1]: 0.0158 µM
- selectivity ratio (in vitro [3]): > 385
- CC50 at 48 h [4]: > 200 µM

SMILES: Cc1nnc(C(C)C)n1[C@@H]1C[C@H]2CC[C@@H](C1)N2CC[C@H](NC(=O)C1CCC(F)(F)CC1)c1ccc(Cl)s1
- IC50 [1]: 0.012 µM

SMILES: Cc1nnc(C(C)C)n1[C@@H]1C[C@H]2CC[C@@H](C1)N2CC[C@H](NC(=O)C1CCC(F)(F)CC1)c1cccs1
- AUC(0-inf) [5]: 1110 ng·h/mL
- IC50 [2]: 0.0036 µM
- IC50 (Cytochrome P450 2C9): > 25 µM
- IC50 (Cytochrome P450 2C19): > 25 µM
- selectivity ratio (in vitro [6]): 56000
- half-life [7]: 0.77 h
- selectivity ratio (in vitro [8]): 100000
- IC50 [1]: 0.0091 µM
- Cmax [9]: 6840 ng/mL
- Cmax [10]: 266 ng/mL
- MRT [11]: 0.7 h
- IC50 (Cytochrome P450 1A2): > 25 µM
- bioavailability [12]: 7.8%
- Tmax [13]: 4 h
- selectivity ratio (in vitro [3]): > 55000
- clearance [14]: 23.7 mL/min/kg
- IC50 (Cytochrome P450 3A4 [15]): > 25 µM
- IC50 [16]: 0.0131 µM
- IC50 [17]: 3.5 µM
- MRT [18]: 3.3 h
- CC50 at 48 h [4]: > 200 µM
- AUC(0-inf) [19]: 7050 ng·h/mL
- IC50 [20]: 0.0285 µM
- Tmax [21]: 0.25 h
- selectivity ratio (in vitro [22]): 99000
- IC50 (Cytochrome P450 2D6): > 25 µM
- half-life [23]: 2.1 h
- selectivity ratio (in vitro [24]): 28000
- IC50 (Cytochrome P450 3A4 [25]): > 25 µM
- selectivity ratio (in vitro [26]): 92000
- IC50 [27]: 0.0062 µM
- IC50 [28]: 0.0029 µM
- IC50 [29]: 0.0036 µM
- selectivity ratio (in vitro [30]): 9400
- IC50 [31]: 0.0048 µM

SMILES: Cc1ccc([C@H](CCN2[C@@H]3CC[C@H]2C[C@H](n2c(C)nnc2C(C)C)C3)NC(=O)C2CCC(F)(F)CC2)s1
- AUC(0-inf) [5]: 1870 ng·h/mL
- IC50 [2]: 0.0115 µM
- IC50 (Cytochrome P450 2C9): > 25 µM
- IC50 (Cytochrome P450 2C19): > 25 µM
- selectivity ratio (in vitro [6]): > 1600
- half-life [7]: 1.6 h
- selectivity ratio (in vitro [8]): > 18000
- IC50 [1]: 0.0028 µM
- Cmax [9]: 1690 ng/mL
- Cmax [10]: 580 ng/mL
- MRT [11]: 2.3 h
- IC50 (Cytochrome P450 1A2): > 25 µM
- bioavailability [12]: 40.1%
- Tmax [13]: 2 h
- selectivity ratio (in vitro [3]): > 17000
- clearance [14]: 71.7 mL/min/kg
- IC50 (Cytochrome P450 3A4 [15]): 23.4 µM
- IC50 [16]: 0.0188 µM
- IC50 [17]: 3.38 µM
- MRT [18]: 4.8 h
- CC50 at 48 h [4]: > 200 µM
- AUC(0-inf) [19]: 2330 ng·h/mL
- IC50 [20]: 0.24 µM
- Tmax [21]: 0.25 h
- selectivity ratio (in vitro [22]): > 13000
- IC50 (Cytochrome P450 2D6): > 25 µM
- half-life [23]: 32.8 h
- selectivity ratio (in vitro [24]): > 11000
- IC50 (Cytochrome P450 3A4 [25]): 10.9 µM
- selectivity ratio (in vitro [26]): > 29000
- IC50 [27]: 0.0149 µM
- IC50 [28]: 0.0067 µM
- IC50 [29]: 0.0114 µM
- selectivity ratio (in vitro [30]): > 833
- IC50 [31]: 0.126 µM

SMILES: CC(C)c1nnc(C(F)(F)F)n1[C@@H]1C[C@H]2CC[C@@H](C1)N2CC[C@H](NC(=O)C1CCC(F)(F)CC1)c1cccs1
- IC50 [1]: 0.0047 µM

SMILES: Cc1nnc(C2CC2)n1[C@@H]1C[C@H]2CC[C@@H](C1)N2CC[C@H](NC(=O)C1CCC(F)(F)CC1)c1cccs1
- IC50 [1]: 0.0029 µM

SMILES: Cc1nnc(C(C)C)n1[C@@H]1C[C@H]2CC[C@@H](C1)N2CC[C@H](NC(=O)C1CCC(F)(F)CC1)c1cscn1
- IC50 [1]: 0.0271 µM

SMILES: Cc1csc([C@H](CCN2[C@@H]3CC[C@H]2C[C@H](n2c(C)nnc2C(C)C)C3)NC(=O)C2CCC(F)(F)CC2)c1
- IC50 [1]: 0.0068 µM

SMILES: COc1ccc([C@H](CCN2[C@@H]3CC[C@H]2C[C@H](n2c(C)nnc2C(C)C)C3)NC(=O)C2CCC(F)(F)CC2)s1
- IC50 [1]: 0.0068 µM

SMILES: Cc1nnc(C(C)C)n1[C@@H]1C[C@H]2CC[C@@H](C1)N2CC[C@H](NC(=O)C1CCC(F)(F)CC1)c1cccnc1
- IC50 [2]: 1.52 µM
- IC50 [1]: 0.0826 µM
- selectivity ratio (in vitro [3]): > 65.8
- CC50 at 48 h [4]: > 100 µM

SMILES: Cc1nnc(C(C)C)n1[C@@H]1C[C@H]2CC[C@@H](C1)N2CC[C@H](NC(=O)C1CCC(F)CC1)c1cccs1 (stereo partly drawn)
- IC50 [1]: 0.003 µM

SMILES: Cc1ccc([C@H](CCN2[C@@H]3CC[C@H]2C[C@H](n2c(C)nnc2C(C)C)C3)NC(=O)Cc2ccc(F)cc2)s1
- IC50 [1]: 0.033 µM
